The subject of series [1] is Human gastric adenocarcinoma (AGS) cells. The series is described as follows: growth reduction of AGS cells. The class given is cell-based. The source says:
Hydrastis leaf extract produced activity slightly less than the control or root extract but contained one fifth of the berberine indicating synergistic and/or additive compounds exist in the leaf. Antineoplastic—Cancer Cell Cultures. This assay measures the ability of Hydrastis to stimulate or arrest metabolic activity of tumor cells. Human gastric adenocarcinoma (AGS), CaCo2 colon cancer cells and normal colon epithelial tissue (ATCC) will be grown in Petri plates on Dulbecco's Modified Eagle Medium (DME) with 4 mM L-glutamine, 4.5 g/l glucose and 10% fetal bovine serum. CRL 7368 Breast Cancer cells and CRL 7367 Fibroblast control cells will be grown in Petri plates on DME with 4 mM L-glutamine, 4.5 g/l glucose, 1.5 g/l sodium bicarbonate and 10% fetal bovine serum. A 95% confluent layer of healthy cells will be divided as follows: surface media will be poured from the plates so that the cells are not dislodged. Ten milliliters of sterile phosphate-buffered saline (PBS) will be added to the plates to rinse the cell layer and then discarded. […] Cellular release by the trypsin is indicated when the cell layer moves when the plate is tilted. Dislodged cells will be added to 15 ml sterile tubes containing 1 ml calf serum. […] The cellular pellet is suspended in 5 ml of medium by mixing. A cell suspension aliquot (0.1 ml) is added to 0.9 ml of 0.4% Trypan Blue and mixed. Cell counts will be made using a hemocytometer charged with the cell suspension. Aliquots of the cell suspension (based on cell count) will be added to Petri plates, then 15 ml of media will be added and the plates incubated at 37° C. in a CO2 incubator. Cells will be checked daily for contamination and morphology. Media will be replaced every 2 to 3 days with fresh medium. The Cell Titer 96® AQueous Non-radioactive Cell proliferation Assay manufactured by Promega, is a colorimetric method used to measure dehydrogenase activity found in metabolically active cells. The MTS is reduced to formazan in the presence of metabolically active cells and the absorbance of formazan is measured spectrophotometrically. Two days post subculture, cells will be rinsed twice with respective media, harvested, and the cell concentration adjusted to 1×10^5 cells/ml. Fifty μl of the cell suspension will be added to the individual wells of a 96-well microtiter plate. Each well will contain 50 μl of the test sample (extract) or standard reference drug. Plates will be incubated for 48 to 72 hr at 37° C. in a CO2 incubator. After incubation, 20 μl of MTS/PMS solution will be added, and the plates incubated for an additional 1 to 4 hr. At the end of the incubation period, absorbance will be recorded at 490 nm.

The subject of series [2] is SNU-638 (human stomach adenocarcinoma). Particulars: cited from earlier work.
The subject of the next series is Giardiasis. Particulars: berberine 10 mg/kg/day for 10 days; metronidazole 20 mg/kg/day for 5-7 days; cited from earlier work.
The conditions of series [3]: oral, 32 patients, 3 months; cited from earlier work.
The next series has as its system Giardia. Particulars: three divided doses for 6 days; berberine 5 mg/kg/day, metronidazole 10 mg/kg/day; cited from earlier work.
The conditions of series [4]: hyperlipidemic hamsters; cited from earlier work.
In series [5] the test system is human gastric carcinoma SNU-5 cells. Particulars: SNU-5 cell line; cited from earlier work.
The next series deals with hepatoma HepG2 cells. The settings on record: cited from earlier work.
The next series relates to E. coli strain ORN178. The series is described as follows: MIC and MBC against E. coli strain ORN178. The class given is cell-based. Particulars: for concentration determined to be non-inhibitory (up to): inhibitor alone. The method, then: Minimum inhibition concentration (MIC) will be tested in appropriate liquid media in 96-well microtiter plates. Each well contains 5×10^5 CFU/ml of test bacteria, serially diluted extracts and medium. In some cases when chemical solvents are used, it will be tested simultaneously with the test compounds to ensure the absence of antimicrobial activity. Triplicate samples are to be performed.
After 10 min at 37° C., the treated bacterial (or fungal) culture will be diluted and viable colony counts determined. The ability of goldenseal extract in killing test organisms will be elucidated.
Antimicrobial Characteristics of Goldenseal: Antimicrobial activities of SHF NOP certified Hydrastis were evaluated and compared to that of pure chemical berberine sulfate and berberine chloride. […] The synergistic effects of berberine with the known MDR pump inhibitor (reserpine and orthovanadate) as well as Hydrastis root extracts with leaf extracts were also determined. Please refer to the Materials and Methods section for detailed protocol. All extracts were lyophilized and reconstituted in H2O.

Series [6] has as its system CaCo2, a colon epithelial cell line. The series is described as follows: MTS cell proliferation assay, CaCo2. The class given is cell-based. The method, then: Another study at Clemson examined the anti-tumor properties of berberine when combined with pump inhibitory characteristics of leaf extracts from Hydrastis. […] Anti-tumor properties block uncontrolled growth, while pump inhibitory properties aid in lowering the dosage of drugs needed to treat the patient.
MTS assay was used to measure cell proliferation.
The MTS is reduced to formazan in the presence of metabolically active cells and the absorbance of formazan is measured spectrophotometrically. Two days post subculture, cells will be rinsed twice with respective media, harvested, and the cell concentration adjusted to 1×10^5 cells/ml. Fifty μl of the cell suspension will be added to the individual wells of a 96-well microtiter plate. Each well will contain 50 μl of the test sample (extract) or standard reference drug. Plates will be incubated for 48 to 72 hr at 37° C. in a CO2 incubator. After incubation, 20 μl of MTS/PMS solution will be added, and the plates incubated for an additional 1 to 4 hr. At the end of the incubation period, absorbance will be recorded at 490 nm.

Series [7] concerns McF7, a breast epithelial cell line. Kind of series: MTS cell proliferation assay, McF7. The class given is cell-based. The source says: Another study at Clemson examined the anti-tumor properties of berberine when combined with pump inhibitory characteristics of leaf extracts from Hydrastis. This combination inhibited proliferation of both CaCo2, a colon epithelial cell line, and McF7, a breast epithelial cell line. […] Anti-tumor properties block uncontrolled growth, while pump inhibitory properties aid in lowering the dosage of drugs needed to treat the patient. MTS assay was used to measure cell proliferation. Cell proliferation of McF7 was reduced to 45% of the control when treated with 2% of berberine. […] However, a synergetic effect was observed when combining 0.5% berberine with 1.5% leaf extract. Proliferation of McF7 was reduced to 59% compared to the untreated cells. The Cell Titer 96® AQueous Non-radioactive Cell proliferation Assay manufactured by Promega, is a colorimetric method used to measure dehydrogenase activity found in metabolically active cells. The MTS is reduced to formazan in the presence of metabolically active cells and the absorbance of formazan is measured spectrophotometrically. Two days post subculture, cells will be rinsed twice with respective media, harvested, and the cell concentration adjusted to 1×10^5 cells/ml. Fifty μl of the cell suspension will be added to the individual wells of a 96-well microtiter plate. […] At the end of the incubation period, absorbance will be recorded at 490 nm.
A general note: Tetrazolium dyes change colour on reduction, which living cells bring about.

A further series deals with Streptococcus mutans. Particulars: Hwang (2003); cited from earlier work.
The test system of series [8] is COX-2 transcriptional activity in human colon cancer cells. The settings on record: dose- and time-dependent; cited from earlier work.
The subject of the next series is human tumour HeLa. Particulars: cited from earlier work.
For series [9] the following is noted: in 2.5 hrs; cited from earlier work.
The subject of series [10] is Bifidobacterium adolescentis, Lactobacillus acidophilus, and Lactobacillus casei. Particulars: cited from earlier work.
In a further series the test system is murine leukemia L1210. The settings on record: cited from earlier work.
For series [11], the system named is Chang (normal) liver cells. Particulars: cited from earlier work.
The test system of the next series is transplanted B16 line. The settings on record: day 16, doses of 5 and 10 mg/kg; cited from earlier work.
Series [12] relates to HT-1080 (human fibrosarcoma). The settings on record: cited from earlier work.
Series [13] deals with 15 strains of Helicobacter pylori. Particulars: Mahady, 2003; cited from earlier work.
The subject of the next series is SA-K2068. The series is described as follows: MIC against Staph. strain SA-K2068 (MDR efflux pump distinct from NorA). The class given is cell-based. The text has this: (§1) Additional preliminary data regarding the potential synergistic activity of Hydrastis leaf on two Staph. strains SA-1199B and SA-K2068 was developed using Hydrastis extracts. […]
A further series concerns SA-1199B. The series is described as follows: MIC against Staph. strain SA-1199B (over expresses NorA MDR efflux protein). The class given is cell-based.
Excerpt: as §1

Where [14] appears, read: 10 μg/ml of reserpine or 2 mM of orthovanadate supplemented.

Converted amounts (≈) assume the structure as drawn. Where two headings read alike, the source gives them in different places.

As for `COc1ccc2cc3[n+](cc2c1OC)CCc1cc2c(cc1-3)OCO2` [Berberine chloride], the “% growth reduction of AGS cells” value in series [1] (first volume column, unit μl, berberine chloride control 500 μg/ml) is on record as “.7%”; in series [1] (fourth volume column, unit μl), 2.6%; in series [1] (head printed '0 μl'), 4.2%; in series [1] (head printed '6 μl'), 2.1%; in series [1] (second volume column, unit μl), “.5%”; in series [1] (third volume column, unit μl), 3.7%.
What is called IC50 is the concentration at which inhibition is half-maximal. The term MIC50 denotes an inhibitory concentration at the 50% level, which refers to growth in some studies and to a panel of isolates in others. As to `COc1ccc2cc3[n+](cc2c1OC)CCc1cc2c(cc1-3)OCO2` [berberine], the IC50 in [2] is 3.4 µg/mL; in series [5] it was 48 µM; in the series on human tumour HeLa (Jantova, 2003), “less than 4 microg mL(−1)”; in the series with human tumour HeLa (Kettman, 2004) it was “less than 4 microg/ml”; in the series on murine leukemia L1210 (Jantova, 2003), “less than 4 microg mL(−1)”; in the series with murine leukemia L1210 (Kettman, 2004), “less than 4 microg/ml”. Further, in series [12], the IC50 was 3.2 µg/mL. In addition, the “negative stool specimens after 10 days” value with Giardiasis is “Ninety”. Besides, the “remained negative one month later” value with Giardiasis was 83%. The “reduction of LDL-cholesterol” value is 25% in [3] and 42% in [4]. Further, the entries for the “reduction of serum cholesterol” value in series [3] and in series [4] were 29% and 40%, respectively. In [3], the reduction of triglycerides is listed as 35%. Besides, in the series on Giardia, the “subjects Giardia-free upon stool analysis” value is on record as 68%. Further, the “subjects asymptomatic / resolution of symptoms” value with Giardia is given as 48%. For the same compound, the “increase in hepatic LDLR mRNA” value in [4] is given as 3.5 fold. Also, the “increase in hepatic LDLR protein” value in series [4] was 2.6 fold. The cytotoxicity entry in the series on hepatoma HepG2 cells is “significant cytotoxicity”; in series [11], “ineffective”. In the series with E. coli strain ORN178 (setting [14]), the “MBC of berberine reduced to” value is on record as “¼”. The “MIC of berberine reduced by” value with E. coli strain ORN178 (setting [14]) is reported as “half”. Further, the MBC with E. coli strain ORN178 (Escherichia coli, ORN178, berberine alone, read-out: MBC (μg/ml berberine)) came out at 125 µg/mL. In addition, in the series with E. coli strain ORN178 (Escherichia coli, ORN178, berberine alone, read-out: MIC (μg/ml berberine)), the MIC was found to be 62.5 µg/mL. Further, in [6] (combination of 0.5% berberine and 0.5% leaf extract), the “cell proliferation rate, CaCo2” value worked out at 48%. Besides, in series [6] (treated with 0.5%), the “cell proliferation, CaCo2” value is recorded as 75%. The “Proliferation of McF7 compared to the untreated cells” value in series [7] (0.5% berberine combined with 1.5% leaf extract) is recorded as 59%. In addition, in series [7] (treated at a concentration of 2%), the “Cell proliferation of McF7, % of the control” value is recorded as 45%. For the same compound, in the series on Streptococcus mutans, the “Minimum Inhibitory Concentration (MIC)” value is 125 µg/mL. For the same compound, the “concentrations that inhibit COX-2 transcriptional activity” value in [8] is listed as “higher than 0.3 microM”. Besides, the “absorbed in the intestine” value in series [9] is listed as “less than 5%”. Also, the “inhibition of "friendly" bacteria” value in series [10] is on record as “weak or no inhibition”. For the same compound, the tumor volume entry with transplanted B16 line is recorded as “significant reduction”. In addition, the MIC50 in [13] is 12.5 µg/mL.
For the compound `O=C(O)c1cn(C2CC2)c2cc(N3CCNCC3)c(F)cc2c1=O` [Ciprofloxacin], the MIC in the series on SA-K2068 (read-out: SA K2068 MIC, +312.5 μg/mL leaf ext.) was 0.5 µg/mL; with SA-K2068 (read-out: SA K2068 MIC, +625 μg/mL leaf ext.), 0.5 µg/mL; in the series with SA-K2068 (read-out: SA K2068 MIC, +5~20 μg/mL Reserpine), 0.5 µg/mL; in the series with SA-K2068 (read-out: SA K2068 MIC, agent alone) it was 4 µg/mL; with SA-1199B (+312.5 μg/mL leaf ext.), 2 µg/mL; in the series on SA-1199B (+625 μg/mL leaf ext.) it was 2 µg/mL. Further, the MIC with SA-1199B (+1250 μg/mL leaf ext.) is < 0.5 µg/mL; in the series on SA-1199B (+5~20 μg/mL Reserpine), 1 µg/mL; in the series with SA-1199B (agent alone), 8 µg/mL.
As for `COc1ccc2c(c1OC)C(=O)O[C@@H]2[C@H]1c2cc3c(cc2CCN1C)OCO3` [beta-hydrastine], the MIC50 in [13] was 100.0 µg/mL (≈ 261 µM).
On to `COC(=O)[C@H]1[C@H]2C[C@@H]3c4[nH]c5cc(OC)ccc5c4CCN3C[C@H]2C[C@@H](OC(=O)c2cc(OC)c(OC)c(OC)c2)[C@@H]1OC` [reserpine], for which the “concentration determined to be non-inhibitory (up to)” value with E. coli strain ORN178 is “Up to 5000 μg/ml”.
Turning to `Cc1ncc([N+](=O)[O-])n1CCO` [metronidazole], in the series with Giardiasis, the “negative stool specimens after 10 days” value is given as 95% and the “remained negative one month later” value was 90%. For the same compound, in the series with Giardia, the “subjects Giardia-free upon stool analysis” value is listed as “All” and the “subjects asymptomatic / resolution of symptoms” value is given as 33%.
For `[O]=[V]([O-])([O-])[O-]` [orthovanadate], the “concentration determined to be non-inhibitory (up to)” value in the series on E. coli strain ORN178 is on record as ≤ 4 mM.

(Values after US8003136B2, “Standardization of botanical products utilizing biological activity as a marker” (priority 2004, dated 2011).)
